Read-outs that look alike come from different tables or passages of the source.
Columns and labels:
[1] = ascending single-dose pharmacokinetic study in healthy subjects; format: in vivo, human; conditions: for AUC: t = 0 to ∞; for CL/F: read-out: mean oral-dose clearance (C1/F) (converted)
Method: A study was conducted as an ascending single-dose tolerance study with fasting administration of 500, 1000, 2000, and 4000 mg oral doses. In each cohort, 8 subjects received either placebo (2 subjects) or the prescribed dose of 2-(8,9-dioxo-2,6-diazabicyclo[5.2.0]non-1(7)-en-2-yl)ethyl]phosphonic acid (6 subjects). Subjects in the fasting 1000-mg cohort were crossed over to receive a 1000-mg postprandial dose in study period 2. Additionally, the 2000-mg dose level was repeated in a cohort of elderly subjects.

[2] = as above; format: in vivo; conditions: human, plasma, intravenous, 100 mg, 100 mg 1-hour, infusion, mean ± SD
[3] = animal absorption study, oral bioavailability in rats; conditions: rat, in vivo, 100 mg/kg
[4] = pH range of 4 to 8
[5] = animal absorption study, oral bioavailability in monkeys; conditions: monkey, in vivo, 100 mg/kg
Caco-2 cell = Caco-2 cell permeability
[6] = apparent n-octanol/water partition coefficient
[7] = ascending multiple-dose pharmacokinetic study in healthy subjects; format: in vivo; conditions: human, plasma, po, mean ± SD; for half-life: read-out: T½ (converted)
Method: A study was conducted as an ascending multiple-dose tolerance study of 2-(8,9-dioxo-2,6-diazabicyclo[5.2.0]non-1(7)-en-2-yl)ethyl]phosphonic acid with administration of 200, 400, 800, and 1600 mg oral doses in healthy subjects over a 14-day period.

[8] = 1000 mg, after standardized high-fat, high-calorie meal versus fasting
[9] = human, plasma, po, 500 mg, 500 mg Oral, fasting, single administration, healthy subjects, mean ± SD
[10] = human, plasma, po, 1000 mg, 1000 mg Oral, fasting, single administration, healthy subjects, mean ± SD
[11] = human, plasma, po, 1000 mg, 1000 mg Oral, fed (high-fat, high-calorie meal), single administration, healthy subjects, mean ± SD
[12] = human, plasma, po, 2000 mg, 2000 mg Oral, fasting (elderly), single administration, mean ± SD
[13] = human, plasma, po, 2000 mg, 2000 mg Oral, fasting, single administration, healthy adult subjects, mean ± SD
[14] = human, plasma, po, 4000 mg, 4000 mg Oral, fasting, single administration, healthy subjects, mean ± SD
[15] = 200 mg, Multiple dose administration (day 14), 200 mg q 12 h Oral, fed
[16] = 200 mg, Single dose administration, 200 mg Oral, fasting
[17] = 400 mg, Multiple dose administration (day 14), 400 mg q 12 h Oral, fasting
[18] = 400 mg, Single dose administration, 400 mg Oral, fasting
[19] = 800 mg, Multiple dose administration (day 14), 800 mg q 12 h Oral, fasting
[20] = 800 mg, Single dose administration, 800 mg Oral, fasting
[21] = 1600 mg, Multiple dose administration (day 14), 1600 mg q 12 h Oral, fasting
[22] = 1600 mg, Single dose administration, 1600 mg Oral, fasting

With `O=c1c2c(c1=O)N(CCP(=O)(O)O)CCCN2` [[2-(8,9-dioxo-2,6-diazabicyclo[5.2.0]non-1(7)-en-2-yl)ethyl]phosphonic acid] the “lowering of mean Cmax by food” value [1, 8] was 67%, the “reduction of mean AUC by food” value [1, 8] was 57% and the “mean oral-dose clearance (C1/F), lower in elderly than in healthy adult subjects” value ([1]; 2000 mg, fasting, single-dose) was “approximately 10%”. The Tmax ([1]; human, plasma, intravenous, 100 mg, 100 mg 1-hour, infusion, healthy subjects, mean ± SD) was 0.95 ± 0.11 h, the half-life ([1]; human, plasma, intravenous, 100 mg, 100 mg 1-hour, infusion, healthy subjects, mean ± SD, read-out: T½ (converted)) was 8.3 ± 8.8 h and the Cmax [1, 9] was 0.32 ± 0.063 µg/mL. The Tmax [1, 9] was 1.9 ± 0.7 h, the half-life ([1]; human, plasma, po, 500 mg, 500 mg Oral, fasting, single administration, healthy subjects, mean ± SD, read-out: T½ (converted)) was 6.7 ± 6.4 h and the AUC [1, 9] was 2.14 ± 0.542 µg·h/mL. For the same molecule, the Cmax [1, 10] was 1.18 µg/mL, the Tmax [1, 10] was 0.88 h and the half-life ([1]; human, plasma, po, 1000 mg, 1000 mg Oral, fasting, single administration, healthy subjects, mean ± SD, read-out: T½ (converted)) was 14.6 ± 9.3 h. For the same molecule, the AUC [1, 10] was 5.13 µg·h/mL, the Cmax [1, 11] was 0.392 µg/mL and the Tmax [1, 11] was 2.92 h. It also gave a half-life ([1]; human, plasma, po, 1000 mg, 1000 mg Oral, fed (high-fat, high-calorie meal), single administration, healthy subjects, mean ± SD, read-out: T½ (converted)) of 16 ± 10 h, an AUC [1, 11] of 2.21 µg·h/mL and a Cmax [1, 12] of 1.61 ± 0.628 µg/mL. For the same molecule, the Tmax [1, 12] was 1.25 ± 0.61 h, the half-life ([1]; human, plasma, po, 2000 mg, 2000 mg Oral, fasting (elderly), single administration, mean ± SD, read-out: T½ (converted)) was 14.1 ± 11.1 h and the AUC [1, 12] was 8.89 µg·h/mL. It also gave a Cmax [1, 13] of 1.79 ± 1.36 µg/mL, a Tmax [1, 13] of 1.42 ± 0.96 h and a half-life ([1]; human, plasma, po, 2000 mg, 2000 mg Oral, fasting, single administration, healthy adult subjects, mean ± SD, read-out: T½ (converted)) of 6.4 ± 2 h. The AUC [1, 13] was 7.64 µg·h/mL, the CL/F ([1]; human, plasma, po, 2000 mg, elderly subjects, 2000 mg, fasting, single-dose) was 3.14 L/h/kg and the CL/F ([1]; human, plasma, po, 2000 mg, healthy adult subjects, 2000 mg, fasting, single-dose) was 3.5 L/h/kg. For the same molecule, the Cmax [1, 14] was 1.49 ± 0.436 µg/mL, the Tmax [1, 14] was 2.6 ± 1.08 h and the half-life ([1]; human, plasma, po, 4000 mg, 4000 mg Oral, fasting, single administration, healthy subjects, mean ± SD, read-out: T½ (converted)) was 9.1 ± 4.6 h. The AUC [1, 14] was 8.98 ± 1.98 µg·h/mL, the half-life ([1]; human, plasma, po, all cohorts, oral, fasting, estimates not always reliable, read-out: mean t1/2) was 6 to 16 h and the bioavailability ([1]; human, plasma, subjects in the first cohort (500 mg oral, 100 mg infusion), read-out: mean absolute bioavailability) was 4.3%. For the same molecule, the Cmax [2] was 4.01 ± 0.512 µg/mL, the AUC ([2]; t = 0 to ∞) was 10.2 ± 1.72 µg·h/mL and the bioavailability [3] was about 1%. For the same molecule, the solubility [4] was “very soluble”, the bioavailability [5] was about 2.5% and the Caco-2 cell permeability (Caco-2 cell) was “poor”. The logP [6] was -1.37, the Cmax [7, 15] was 0.153 ± 0.075 µg/mL and the Tmax [7, 15] was 1.2 ± 0.3 h. The half-life [7, 15] was 6.6 ± 3.9 h, the AUC ([7]; 200 mg, Multiple dose administration (day 14), 200 mg q 12 h Oral, fed, t = 0 to 12 hours (tau)) was 0.817 ± 0.265 µg·h/mL and the Cmax [7, 16] was 0.172 ± 0.09 µg/mL. It also gave a Tmax [7, 16] of 1.3 ± 0.5 h, a half-life [7, 16] of 3.5 ± 0.6 h and an AUC ([7]; 200 mg, Single dose administration, 200 mg Oral, fasting, t = 0 to ∞) of 0.699 ± 0.201 µg·h/mL. It also gave a Cmax [7, 17] of 0.398 ± 0.209 µg/mL, a Tmax [7, 17] of 1.6 ± 1.3 h and a half-life [7, 17] of 11.9 ± 10.4 h. For the same molecule, the AUC ([7]; 400 mg, Multiple dose administration (day 14), 400 mg q 12 h Oral, fasting, t = 0 to 12 hours (tau)) was 1.81 ± 0.747 µg·h/mL, the Cmax [7, 18] was 0.346 ± 0.282 µg/mL and the Tmax [7, 18] was 2 ± 1.6 h. For the same molecule, the half-life [7, 18] was 4.5 ± 1.2 h, the AUC ([7]; 400 mg, Single dose administration, 400 mg Oral, fasting, t = 0 to ∞) was 1.49 ± 0.371 µg·h/mL and the Cmax [7, 19] was 0.436 ± 0.151 µg/mL. It also gave a Tmax [7, 19] of 1.4 ± 0.6 h, a half-life [7, 19] of 16.9 ± 8.8 h and an AUC ([7]; 800 mg, Multiple dose administration (day 14), 800 mg q 12 h Oral, fasting, t = 0 to 12 hours (tau)) of 2.18 ± 0.644 µg·h/mL. The Cmax [7, 20] was 0.715 ± 0.524 µg/mL, the Tmax [7, 20] was 1.4 ± 0.7 h and the half-life [7, 20] was 8.3 ± 1.3 h. It also gave an AUC ([7]; 800 mg, Single dose administration, 800 mg Oral, fasting, t = 0 to ∞) of 3.19 ± 0.8 µg·h/mL, a Cmax [7, 21] of 1.51 ± 0.842 µg/mL and a Tmax [7, 21] of 1.4 ± 1.3 h. It also gave a half-life [7, 21] of 10.5 ± 6.6 h, an AUC ([7]; 1600 mg, Multiple dose administration (day 14), 1600 mg q 12 h Oral, fasting, t = 0 to 12 hours (tau)) of 4.91 ± 1.21 µg·h/mL and a Cmax [7, 22] of 0.962 ± 0.592 µg/mL. It also gave a Tmax [7, 22] of 1.3 ± 1.3 h, a half-life [7, 22] of 6.9 ± 1.7 h and an AUC ([7]; 1600 mg, Single dose administration, 1600 mg Oral, fasting, t = 0 to ∞) of 4.06 ± 1.32 µg·h/mL.

From patent US20050142192A1, “Oral administration of [2-(8,9-dioxo-2,6-diazabicyclo[5.2.0]non-1(7)-en-2-yl)alkyl] phosphonic acid and derivatives” (Wyeth, priority 2003, published 2005)
